Results taken from ChEMBL document CHEMBL1201862, “PubChem BioAssay data set” (2004).
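Interpolation was linear, between the two tested concentrations surrounding the appropriate level; five concentrations were tested over 48 hours in 96-well plates. At the GI50, growth is halved.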 Active and inactive are the calls of the source. Rule as the data show it: active = GI50 up to about 1.1 µM and inactive = higher.

Legend:
Assay in all cases: NCI-60 cell line screen, 48 h
[1] = system: HT-29
[2] = system: SK-MEL-5
[3] = system: U-251
[4] = system: SW-620
[5] = system: HOP-62
[6] = system: TK-10
[7] = system: NCI-H226
[8] = system: CAKI-1
[9] = system: KM12
[10] = system: SF-539
[11] = system: OVCAR-5
[12] = system: CCRF-CEM
[13] = system: RXF 393
[14] = system: SF-295
[15] = system: UACC-62
[16] = system: OVCAR-4
[17] = system: SR

Measured: GI50

O=C1CCC2(c3ccccc3)Nc3cc(Cl)ccc3N12 (configuration not stated)
inactive: [1] 31.7 µM | [2] 16.9 µM | [3] 48 µM | [4] 41.5 µM | [5] 25.4 µM | [6] 39.2 µM | [7] 19.2 µM | [8] 21 µM | [9] 27.6 µM | [10] 41.3 µM | [11] 58.9 µM | [12] 25.1 µM | [13] 28.4 µM | [14] 27.4 µM | [15] 19 µM | [16] 35.2 µM

O=C1C=C/C(=N\c2ccc3c(c2)C(Br)c2ccccc2-3)O1 (configuration not stated)
inactive: [3] > 100 µM | [4] 27.6 µM | [5] > 100 µM | [6] > 100 µM | [17] 20.2 µM | [10] > 100 µM | [12] 26.8 µM | [13] > 100 µM | [14] > 100 µM | [15] 61.5 µM

CCOC(=O)C1C(=O)CC(=O)C2CCCCC21 (configuration not stated)
inactive: [2] > 100 µM | [3] > 100 µM | [4] > 100 µM | [5] > 100 µM | [6] > 100 µM | [8] > 100 µM | [9] > 100 µM | [10] > 100 µM | [11] > 100 µM | [12] > 100 µM | [13] > 100 µM | [14] > 100 µM | [15] > 100 µM | [16] > 100 µM

NCP(=O)(O)OCC(=O)O
inactive: [1] > 100 µM | [2] > 100 µM | [3] > 100 µM | [4] > 100 µM | [5] > 100 µM | [6] > 100 µM | [8] > 100 µM | [9] > 100 µM | [17] > 100 µM | [10] > 100 µM | [11] > 100 µM | [12] > 100 µM | [13] > 100 µM | [14] > 100 µM | [15] > 100 µM | [16] > 100 µM

ON/N=C/c1cc2c(cc1Br)OCO2
inactive: [1] > 386 µM | [2] > 386 µM | [3] 329 µM | [4] > 386 µM | [5] > 386 µM | [6] > 386 µM | [7] > 386 µM | [8] > 386 µM | [9] > 386 µM | [17] > 386 µM | [10] > 386 µM | [11] 164 µM | [12] > 386 µM | [13] 114 µM | [14] > 386 µM | [15] > 386 µM

CCCC(=O)c1ccc2c(ccc(=O)n2C)c1
inactive: [1] > 100 µM | [2] 72.9 µM | [3] > 100 µM | [4] > 100 µM | [5] > 100 µM | [6] > 100 µM | [7] 31 µM | [8] 52.7 µM | [9] > 100 µM | [10] > 100 µM | [11] > 100 µM | [12] > 100 µM | [14] > 100 µM | [15] 24.3 µM | [16] 66.7 µM

O=[N+]([O-])c1cc(/C=N\NS(=O)(=O)c2ccc(Cl)cc2)c(O)c([N+](=O)[O-])c1
inactive: [1] 24.9 µM | [2] 27.8 µM | [3] 24 µM | [4] 34.6 µM | [5] 47.3 µM | [6] > 100 µM | [8] 30.5 µM | [9] 27.5 µM | [17] 21 µM | [10] 23.3 µM | [11] > 100 µM | [12] 24.4 µM | [13] 32.8 µM | [14] 32.9 µM | [15] 32.4 µM | [16] 36.7 µM

CC(C)(C)C1CCC2c3c([nH]c4ccccc34)C3C(=O)N(c4ccccc4)C(=O)C3C2C1 (configuration not stated)
inactive: [1] 8.93 µM | [2] > 10 µM | [3] 3.1 µM | [4] 8.34 µM | [6] 3.71 µM | [7] 5.82 µM | [9] 21.4 µM | [17] 6.27 µM | [10] 8.97 µM | [11] > 100 µM | [12] 2.77 µM | [13] 3.81 µM | [14] 4.86 µM | [15] 20.9 µM | [16] 1.86 µM

O=C(C[n+]1ccccc1)NNC(=O)/C(=C/c1ccc2c(c1)OCO2)NC(=O)c1ccccc1
inactive: [1] > 71.8 µM | [2] 32.4 µM | [3] 28.2 µM | [4] 34.8 µM | [5] 44.4 µM | [6] > 100 µM | [7] 36.7 µM | [8] > 100 µM | [9] 35.2 µM | [17] 18.2 µM | [10] 29.4 µM | [11] > 100 µM | [12] 25.9 µM | [13] 41.7 µM | [14] > 79.3 µM | [15] > 67.9 µM | [16] 32.1 µM

CCn1c2c(c3ccccc31)C(c1ccccc1)CC1C(=O)N(c3ccccc3)C(=O)C21 (configuration not stated)
inactive: [2] 31.7 µM | [3] > 10 µM | [4] > 100 µM | [5] 87.1 µM | [6] > 100 µM | [7] 31.8 µM | [8] 35.2 µM | [9] > 100 µM | [10] 35.4 µM | [11] > 100 µM | [12] > 100 µM | [14] > 100 µM | [15] 38.9 µM | [16] > 100 µM

N#CC1(C#N)C=CC(=C2OCC3CCCN23)C=C1 (configuration not stated)
inactive: [1] > 100 µM | [2] 37.8 µM | [3] > 100 µM | [4] > 100 µM | [5] > 100 µM | [6] > 100 µM | [7] > 100 µM | [8] > 100 µM | [9] > 100 µM | [10] > 100 µM | [11] > 100 µM | [12] 77.1 µM | [13] > 100 µM | [14] > 100 µM | [15] > 100 µM | [16] > 100 µM

CN(C(=O)C12C3C4C1C1C2C3C41C#N)C(C)(C)C (configuration not stated)
inactive: [1] > 100 µM | [2] > 100 µM | [3] > 100 µM | [4] > 100 µM | [5] > 100 µM | [6] > 100 µM | [7] > 100 µM | [8] > 100 µM | [9] > 100 µM | [10] > 100 µM | [11] > 100 µM | [12] > 100 µM | [14] > 100 µM | [15] > 100 µM | [16] > 100 µM

COc1ccccc1/C=C1\C(=O)N(C(=O)c2ccc(NC(C)=O)cc2)N=C1C
inactive: [1] > 100 µM | [2] > 100 µM | [3] > 100 µM | [4] > 100 µM | [5] > 100 µM | [6] > 100 µM | [7] > 100 µM | [8] > 100 µM | [9] > 100 µM | [17] > 100 µM | [10] > 100 µM | [11] > 100 µM | [12] > 100 µM | [14] > 100 µM | [16] > 100 µM

CC12CC3CC(C)(C1)CC(N=[N+]=[N-])(C3)C2
inactive: [1] > 100 µM | [2] > 100 µM | [3] > 100 µM | [4] > 100 µM | [5] > 100 µM | [6] > 100 µM | [7] > 100 µM | [8] > 100 µM | [9] > 100 µM | [17] > 100 µM | [10] > 100 µM | [11] > 100 µM | [12] > 100 µM | [14] > 100 µM | [15] > 100 µM | [16] > 100 µM

CC(C)(C)c1cc(CCCCCCCC2(CCCCCCCc3cc(C(C)(C)C)cc(C(C)(C)C)c3)OC(COCCOCCCCCC#N)C(COCCOCCCCCC#N)O2)cc(C(C)(C)C)c1 (configuration not stated)
inactive: [1] > 100 µM | [2] > 100 µM | [3] > 100 µM | [4] > 100 µM | [5] > 100 µM | [6] > 100 µM | [7] > 100 µM | [8] > 100 µM | [9] > 100 µM | [11] > 100 µM | [12] > 100 µM | [13] 3.78 µM | [14] > 100 µM | [15] > 100 µM | [16] > 100 µM

C#CC1(O)CCC2[C@@H]3CCc4cc(Oc5nc(F)nc(-c6c7ccccc7c(SCC)n6CCC)n5)ccc4C3CC[C@@]21C (some centres not stated)
inactive: [1] > 100 µM | [2] 63.8 µM | [3] 54.6 µM | [4] > 100 µM | [5] > 100 µM | [6] > 100 µM | [7] 20.6 µM | [9] > 100 µM | [17] 34.7 µM | [10] 58.9 µM | [11] > 100 µM | [12] 39.4 µM | [13] 21.6 µM | [14] 65.8 µM | [15] 89.7 µM | [16] > 100 µM

COc1cc(OC)c2c(=O)cc(-c3ccc(OC)c(OC)c3OC)oc2c1
inactive: [1] > 100 µM | [4] > 100 µM | [5] 27.7 µM | [6] > 100 µM | [7] > 100 µM | [8] > 100 µM | [9] > 100 µM | [10] 31.9 µM | [11] > 100 µM | [12] > 10 µM | [13] 57.5 µM | [14] 52.2 µM | [15] > 100 µM | [16] 54.3 µM

COc1cc(Cn2c3ccccc3c3cc(C)c4c(c32)C=CC(C)(CCC=C(C)C)O4)cc2c1[nH]c1ccccc12 (configuration not stated) [CHRESTFOLINE C]
inactive: [1] > 100 µM | [2] > 100 µM | [3] > 100 µM | [4] > 100 µM | [5] > 100 µM | [6] > 100 µM | [8] > 100 µM | [9] > 100 µM | [17] > 100 µM | [10] > 100 µM | [11] > 100 µM | [12] > 100 µM | [13] > 100 µM | [14] > 100 µM | [15] > 100 µM | [16] > 100 µM
